{"source": "paper PMC10222203", "about": "(Pharmaceutics, 2023)", "key": {"brain slices": {"test_system": "brain slices", "description": "The brain slice assay was performed according to previously published protocols. Three animals per study group were investigated. All glassware used in the brain slice experiments was silanized using dimethyldichlorosilane in heptane to avoid non-specific binding of the cyclic peptides to glass. In short, the silanization solution was added to the glassware and left there for one hour, after which the glassware was rinsed with methanol and then placed in a heating cabinet to cure. Slicing was performed with a Leica VT1200 microtome slicer (Leica Microsystems, Wetzlar, Germany). […] At the end of the incubation, two 200 µL samples of aECF were taken and mixed with blank brain homogenate (1:4, w:v) for assessment of unbound buffer concentration, Cbuffer (nanomoles per mL). Thereafter, the brain slices were individually sampled, carefully dried on filter paper, weighed, and homogenized in aECF (1:9, w:v) to determine the total amount of drug in the slice, Aslice (nanomoles per g brain). The density of brain tissue was assumed to be 1 g/mL. The key assumption of the assay is achievement of equilibrium during 5 h incubation, with Cbuffer being equal and representing unbound brain slice interstitial concentration. Samples of aECF (200 µL) were also taken from the scintillation vial without brain slices at the start and at the end of the incubation to determine the relative recovery and thermostability of the peptides. The unbound volume of distribution in brain, Vu,brain (mL/g brain), was calculated using Equation (3). (3) Vu,brain =Aslice−Vi×Cbuffer/Cbuffer(1−Vi) where Vi is the volume of buffer film that coats the slice and equals to 0.094 mL/g brain [39].\nTo study the potential mechanism of intracellular distribution of the peptides, several exploratory experiments were performed (Figure 2a). […] In addition, the role of endocytosis and pH partitioning-driven distribution was investigated. The slices were pre-incubated for 30 min with the blockers before the addition of the peptides. Dynasore was used as an inhibitor of dynamin-dependent endocytosis, which is involved in both clathrin and caveolin vesicle formation (Figure 3a). […] Due to high cytotoxicity, the concentration of […] was chosen based on previous studies.\nThe unbound intracellular-to-extracellular concentration ratio, Kp,uu,cell, was calculated according to Equation (14) by combining the brain slice derived, Vu,brain, with the measurement of brain tissue binding, fu,brain, from the tissue homogenate study. This allows elucidation of whether the uptake into the brain cells is driven mainly by passive processes and intracellular binding and/or partitioning, such as lysosomal trapping, or by active uptake into the cells. (14) Kp,uu,cell=fu,brain×Vu,brain"}, "in vivo": {"assay": "in vivo", "details": "rat; for Half-life, t½ / half-life: 10 min intravenous infusion; for Half-life, t½ / AUC(0-inf) / Vd / clearance / half-life: 0.5 mg/kg; for AUC(0-inf) / Vd / clearance / half-life: iv; for half-life: t½", "description": "Since previous pharmacokinetic data were extremely sparse, a pilot study was performed in rats (n = 2), and simulations were performed in Berkeley Madonna (version 8.3.18 for Windows, Berkeley, CA, USA), defining suitable dose and sampling intervals from the parameters obtained in the pilot study. The surgical implantation of catheters made of polyethylene (PE50) in the femoral vein and artery for dosing of peptide and sampling of blood, respectively, was performed the day before experiments under isoflurane anaesthesia. The animals were then housed in a CMA120 system (CMA, Solna, Sweden) for freely moving animals with ad libitum access to food and water. […] All samples were added to heparinized low-binding Eppendorf tubes. The blood samples were centrifuged, and plasma was transferred to new Eppendorf tubes and immediately frozen at −20 °C. After bioanalysis, the area under the plasma concentration–time curve (AUC) was determined by the trapezoidal rule with extrapolation to time infinity followed by calculation of systemic clearance (CL), apparent volume of distribution (Vd), and half-life (t½)."}, "[1]": {"details": "brain tissue homogenate, equilibrium dialysis"}, "[2]": {"details": "rat brain slices, 200 nM, 5 h, 37 °C"}}, "note": "Where “and” joins values, the source holds several entries; their conditions need not be identical. Identical values can stand only once. Like-named read-outs stand apart in the source and are kept apart here."}
{"smiles": "CC(C)C[C@@H]1NC(=O)CNC(=O)[C@H](CC(N)=O)NC(=O)[C@H](CCCNC(=N)N)NC(=O)[C@H]([C@@H](C)O)NC(=O)[C@@H]2CSSC[C@@H]3NC(=O)[C@H]([C@@H](C)O)NC(=O)CNC(=O)CNC(=O)[C@H](C(C)C)NC(=O)[C@@H]4CSSC[C@H](NC(=O)[C@H]([C@@H](C)O)NC(=O)[C@H](CSSC[C@H](NC(=O)[C@H](C(C)C)NC(=O)[C@@H]5CCCN5C1=O)C(=O)NCC(=O)N[C@@H](CCC(=O)O)C(=O)N[C@@H]([C@@H](C)O)C(=O)N4)NC(=O)CNC(=O)[C@@H]1CCCN1C(=O)[C@H]([C@@H](C)O)NC(=O)[C@H](CC(N)=O)NC3=O)C(=O)N[C@@H](CO)C(=O)N[C@@H](Cc1c[nH]c3ccccc13)C(=O)N1CCC[C@H]1C(=O)N[C@@H](C(C)C)C(=O)N2", "note": "[Kalata B1]", "values": [{"measurement": "Bound to brain tissue constituents", "setting": "in vitro; [1]", "value": 93, "unit": "%"}, {"measurement": "fraction unbound", "setting": "in vitro; rat, brain homogenate", "value": "0.0639 ± 0.0072"}, {"measurement": "Reduction in Kp,uu,cell from 37 °C to 4 °C", "setting": "brain slices; brain slices", "value": 138, "unit": "fold"}, {"measurement": "Intra-brain distribution (Vu,brain) relative to SFTI-1", "setting": "brain slices; brain slices 37 °C", "value": "ca. 350 fold"}, {"measurement": "Unbound intracellular-to-extracellular (interstitial) concentration ratio, Kp,uu,cell", "setting": "brain slices; brain slices 37 °C, fu,brain × Vu,brain", "value": "9.73 ± 3.35"}, {"measurement": "Unbound volume of distribution in brain, Vu,brain", "setting": "brain slices; brain slices incubated at 4 °C", "value": 1.12, "unit": "mL/g brain"}, {"measurement": "Reduction in Vu,brain after pre-incubation with dynasore", "setting": "brain slices; brain slices, dynasore 50 µM, 30 min pre-incubation", "value": 23, "unit": "%"}, {"measurement": "Unbound volume of distribution in brain, Vu,brain", "setting": "brain slices; [2]", "value": "152 ± 29.9", "unit": "mL/g brain"}, {"measurement": "Unbound volume of distribution in brain, Vu,brain", "setting": "brain slices; rat brain slices, 200 nM, 5 h, 37 °C, listed as kalata B1", "value": 152, "unit": "mL/g brain"}, {"measurement": "Half-life, t½", "setting": "in vivo; plasma", "value": "35.8 ± 3.52", "unit": "min"}, {"measurement": "AUC(0-inf)", "setting": "in vivo; in vivo", "value": 2800, "unit": "ng·h/mL"}, {"measurement": "Vd", "setting": "in vivo; in vivo", "value": "0.322 ± 0.0887", "unit": "L/kg"}, {"measurement": "clearance", "setting": "in vivo; in vivo", "value": "1.6 ± 0.396", "unit": "mL/min/kg"}, {"measurement": "half-life", "setting": "in vivo; in vivo, plasma", "value": 35, "unit": "min"}]}
{"smiles": "CC[C@H](C)[C@@H]1NC(=O)[C@@H]2CCCN2C(=O)[C@@H]2CCCN2C(=O)[C@H]([C@@H](C)CC)NC(=O)[C@H](CO)NC(=O)[C@H](CCCCN)NC(=O)[C@H]([C@@H](C)O)NC(=O)[C@@H]2CSSC[C@H](NC1=O)C(=O)N[C@@H](Cc1ccccc1)C(=O)N1CCC[C@H]1C(=O)N[C@@H](CC(=O)O)C(=O)NCC(=O)N[C@@H](CCCNC(=N)N)C(=O)N2", "note": "[SFTI-1, sunflower trypsin inhibitor-1]", "values": [{"measurement": "Brain tissue binding (in words)", "setting": "in vitro; [1]", "value": "almost no brain tissue-binding capacity"}, {"measurement": "fraction unbound at 6 h, 1 µM", "setting": "in vitro; rat, brain homogenate (1 part brain with 4 parts PBS), pH 7.4", "value": "0.951 ± 0.115"}, {"measurement": "Unbound volume of distribution in brain, Vu,brain", "setting": "brain slices; brain slices incubated at 4 °C", "value": 0.56, "unit": "mL/g brain"}, {"measurement": "Unbound volume of distribution in brain, Vu,brain", "setting": "brain slices; [2]", "value": "0.436 mL/g brain and 0.436 ± 0.064 mL/g brain"}, {"measurement": "Total plasma concentration post 120 min time point (below the quantification limit)", "setting": "in vivo; 10 min infusion 0.5 mg/kg", "value": "< 5", "unit": "ng/mL"}, {"measurement": "Half-life, t½", "setting": "in vivo; plasma", "value": "20.3 ± 3.50", "unit": "min"}, {"measurement": "AUC(0-inf)", "setting": "in vivo; plasma", "value": 1290, "unit": "ng·h/mL"}, {"measurement": "Vd", "setting": "in vivo; plasma", "value": "0.191 ± 0.0344", "unit": "L/kg"}, {"measurement": "clearance", "setting": "in vivo; plasma", "value": "1.82 ± 0.48", "unit": "mL/min/kg"}, {"measurement": "half-life", "setting": "in vivo; plasma", "value": 20, "unit": "min"}]}
